The values that follow come from patent publication US5162326A, “Pyrimidinedione derivatives, their production and use” (Takeda Chemical Industries, Ltd., priority 1990, dated 1992).

By IC50 is commonly meant the concentration at which inhibition is half-maximal. A low value points to higher potency. By inhibition in vivo is commonly meant the percentage by which the read-out fell short of the control. Read a low inhibition in vivo as a weak effect.

One assay has as its target T1, A-II-receptor (Bos taurus, UniProt P25104).
T1 construct: An A-II-receptor was prepared from the membrane fraction of bovine adrenal cortex; from tissue; host or cells: bovine adrenal cortex, membrane fraction
T1 sequence (P25104 1-359): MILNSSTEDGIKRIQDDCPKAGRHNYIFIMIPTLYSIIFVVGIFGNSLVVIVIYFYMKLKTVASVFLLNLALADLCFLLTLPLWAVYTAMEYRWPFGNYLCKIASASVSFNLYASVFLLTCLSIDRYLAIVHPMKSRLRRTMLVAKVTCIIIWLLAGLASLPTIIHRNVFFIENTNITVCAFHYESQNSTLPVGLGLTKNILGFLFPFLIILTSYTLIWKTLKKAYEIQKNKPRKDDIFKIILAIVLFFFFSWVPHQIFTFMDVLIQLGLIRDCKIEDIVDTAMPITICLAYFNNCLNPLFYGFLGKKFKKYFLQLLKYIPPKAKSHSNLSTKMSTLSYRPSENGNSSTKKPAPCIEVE
The experiment in a line: Inhibition of Binding of Angiotensin-II to Angiotensin Receptor (125I-A-II, membrane fraction of bovine adrenal cortex). The settings on record: room temperature, one hour. The method, then: Inhibition of Binding of Angiotensin-II to Angiotensin Receptor
An experiment of inhibition on the binding of angiotensin-II (A-II) to A-II-receptor was conducted by modifying the method of Douglas et al. [Endocrinology, 102, 685-696 (1978)]. An A-II-receptor was prepared from the membrane fraction of bovine adrenal cortex.
The compound of the present invention (10^-6 M to 10^-8 M) and ^125 I-A-II (1.85 kBq/50 μl) were added to the receptor membrane fraction, and the mixture was incubated at room temperature for one hour. The receptor-bound and free ^125 I-A-II were separated through a filter (Whatman GF/B filter), and the radioactivity of ^125 I-A-II bound to the receptor was measured.

The next assay deals with Pressor Response to A II. Kind of assay: Inhibitory Effect of the Compound on Pressor Action of A-II in rats. It is filed as in vivo, Jcl: SD rats. As to conditions: Rattus norvegicus, po. The text has this: Inhibitory Effect of the Compound of the Present Invention on Pressor Action of A-II
Jcl: SD rats (9 week old, male) were used. On the day previous to the experiment, these animals were applied with cannulation into the femoral artery and vein under anesthesia with pentobarbital Na. The animals were fasted but allowed to access freely to drinking water until the experiment was started. Just on the day of conducting the experiment, the artery cannula was connected with a blood-pressure transducer, and the average blood pressure was recorded by means of polygraph. Before administration of the drug, the pressor action due to intravenous administration of A-II (100 ng/kg) as the control was measured. The drugs were orally administered, and then, at each point of the measurement, A-II was administered intravenously, and the pressor action was similarly measured. By comparing the pressor action before and after administration of the drug, the percent inhibition by the drug on A-II-induced pressor action was evaluated.

The subject of another assay is angiotensin II. The settings on record: reported in the literature; cited from earlier work.

On to `CCCn1c(=O)cc(SC)n(Cc2ccc(-c3ccccc3-c3nn[nH]n3)cc2)c1=O` [compound 1], for which the IC50 on A-II-receptor stood at 860 nM.

For `CCCn1c(=O)cc(SCC)n(Cc2ccc(-c3ccccc3-c3nn[nH]n3)cc2)c1=O` [compound 2], the inhibition in vivo at 30 mg/kg in the assay on Pressor Response to A II is no less than 70%. Moreover, on A-II-receptor, the IC50 amounted to 20 nM. In the case of `CCCSc1cc(=O)n(CCC)c(=O)n1Cc1ccc(-c2ccccc2-c2nnn[nH]2)cc1` [compound 3], on A-II-receptor, the IC50 was determined as 20 nM. In turn, `CCCCSc1cc(=O)n(CCC)c(=O)n1Cc1ccc(-c2ccccc2-c2nn[nH]n2)cc1` [compound 4] returned an inhibition in vivo at 30 mg/kg with Pressor Response to A II of no less than 70%. In addition, the IC50 on A-II-receptor is 40 nM. In the assay with Pressor Response to A II, `CCCn1c(=O)cc(SC2CCCCC2)n(Cc2ccc(-c3ccccc3-c3nn[nH]n3)cc2)c1=O` [compound 5] showed an inhibition in vivo at 30 mg/kg of 30 to 50%. Moreover, the IC50 on A-II-receptor is 320 nM.

In turn, `CCCCCSc1cc(=O)n(CCC)c(=O)n1Cc1ccc(-c2ccccc2-c2nn[nH]n2)cc1` [compound 6] showed an inhibition in vivo at 30 mg/kg with Pressor Response to A II of 30 to 50%. On A-II-receptor, the IC50 amounted to 20 nM. Turning to `CCCn1c(=O)cc(SCc2ccccc2)n(Cc2ccc(-c3ccccc3-c3nn[nH]n3)cc2)c1=O` [compound 7], the inhibition in vivo at 30 mg/kg in the assay with Pressor Response to A II was less than 30%. On A-II-receptor, this compound registered an IC50 of 330 nM. For `CCCn1c(=O)cc(OCC)n(Cc2ccc(-c3ccccc3-c3nn[nH]n3)cc2)c1=O` [compound 8], in that order: no less than 70% and 60 nM. For `CCCCn1c(=O)cc(SCCC)n(Cc2ccc(-c3ccccc3-c3nn[nH]n3)cc2)c1=O` [compound 9] the same measures were no less than 70% and 40 nM. For `CCCCn1c(=O)cc(Sc2ccccc2)n(Cc2ccc(-c3ccccc3-c3nn[nH]n3)cc2)c1=O` [compound 10] the same measures were less than 30% and 320 nM. `CCCNc1cc(=O)n(CCC)c(=O)n1Cc1ccc(-c2ccccc2-c2nn[nH]n2)cc1` [compound 14]: the inhibition in vivo at 30 mg/kg in the assay on Pressor Response to A II is less than 30%. At A-II-receptor, the IC50 was 340 nM. For `CCCOc1cc(=O)n(CCC)c(=O)n1Cc1ccc(-c2ccccc2-c2nnn[nH]2)cc1` [compound 18], in that order: no less than 70% and 140 nM. For `CCCc1cc(=O)n(CC)c(=O)n1Cc1ccc(-c2ccccc2-c2nn[nH]n2)cc1` [compound 23] the same measures were no less than 70% and 20 nM. For `CCCc1cc(=O)n(CCC)c(=O)n1Cc1ccc(-c2ccccc2-c2nn[nH]n2)cc1` [compound 25], in that order: no less than 70% and 20 nM. Turning to `CCCCn1c(=O)cc(CCC)n(Cc2ccc(-c3ccccc3-c3nn[nH]n3)cc2)c1=O` [compound 26], the inhibition in vivo at 30 mg/kg with Pressor Response to A II is no less than 70%. Also, the IC50 at A-II-receptor worked out at 20 nM. For `CCCc1cc(=O)n(CC(=O)OC)c(=O)n1Cc1ccc(-c2ccccc2-c2nn[nH]n2)cc1` [compound 27] the same measures were no less than 70% and 10 nM. For `CCCc1cc(=O)n(CC(=O)OCC)c(=O)n1Cc1ccc(-c2ccccc2-c2nn[nH]n2)cc1` [compound 28], in that order: no less than 70% and 20 nM. As to `CNCC(=O)N[C@@H](CCCN=C(N)N)C(=O)N[C@H](C(=O)N[C@@H](Cc1ccc(O)cc1)C(=O)N[C@H](C(=O)N[C@@H](Cc1cnc[nH]1)C(=O)N1CCC[C@H]1C(=O)N[C@@H](C)C(=O)O)C(C)C)C(C)C` [saralasin], the “angiotensin II antagonistic activity” value in the assay with angiotensin II is reported as “potent angiotensin II antagonistic activity”.
